Measured values: publication PMC4858736, “Inhibition of cyclic diadenylate cyclase, DisA, by polyphenols” (Scientific Reports, 2016)

Target: T1, DisA (Bacillus subtilis, UniProt P37573)
T1 sequence (P37573 1-360): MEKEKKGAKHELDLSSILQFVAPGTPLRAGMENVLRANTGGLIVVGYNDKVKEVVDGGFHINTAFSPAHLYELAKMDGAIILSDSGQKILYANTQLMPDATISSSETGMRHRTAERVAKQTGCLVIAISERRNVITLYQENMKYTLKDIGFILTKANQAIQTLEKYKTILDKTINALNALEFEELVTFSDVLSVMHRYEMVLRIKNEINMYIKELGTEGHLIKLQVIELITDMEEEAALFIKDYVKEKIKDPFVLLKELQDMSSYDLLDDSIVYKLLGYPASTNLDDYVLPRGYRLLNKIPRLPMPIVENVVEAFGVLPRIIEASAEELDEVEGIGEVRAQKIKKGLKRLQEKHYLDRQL
Assay: […]-ATP TLC diadenylate cyclase assay with purified DisA; HPLC and coralyne assays
Type: biochemical

- IC50: 23.6 µM
Compound: O=C(O[C@@H]1Cc2c(O)cc(O)cc2O[C@@H]1c1cc(O)c(O)c2c(=O)c(O)cc([C@H]3Oc4cc(O)cc(O)c4C[C@H]3O)cc12)c1cc(O)c(O)c(O)c1 [TF2B, theaflavin-3′-gallate]
